Like-named read-outs stand apart in the source and are kept apart here.
Key:
healthy male volunteers [1] = experiment: Psychomotor performance, digit symbol substitution test (DSST); conditions: for DSST-score: single oral dose (clobazam 20 mg, clonazepam 1 mg, tolterodine 1 mg), mean (SD)
Procedure: The psychomotor performance was assessed by the digit symbol substitution test (DSST), a subscale of the Wechsler Adult Intelligence Scale. The DSST evaluates the ability to concentrate and modifications in processing information [23]. It is a two-minute paper-and-pencil test. The subject was asked to replace digits with corresponding symbols according to a code given on the same sheet of paper. The score consists in the total number and the correct number of symbols drawn.
Pressure pain, conditioned pain modulation (CPM), intramuscular electrical pain tests, cuff algometry and DSST were performed 120 min after drug intake.
After 15 min, the whole battery of tests was performed.

healthy male volunteers [2] = experiment: Cuff algometry (tourniquet cuff on the leg, VAS-time AUC); assay type: in vivo, human; design: AUC of VAS during cuff algometry: unit not given beside the values; conditions: for AUC of VAS during cuff algometry: mean (SD)
From the text: A tourniquet cuff was applied to the middle of the leg, at the level of the heads of the gastrocnemius and soleus muscle. The cuff was applied at the side contralateral to the side of electrical stimulation in order not to interfere with the positioning of the intramuscular electrodes. During stimulation, the volunteer rated the pain intensity on an electronic VAS scale. The cuff was inflated with compressed air until VAS 6 was reached. The maximum allowed inflating pressure was 200 kPa. The pressure was maintained for 10 min or until the subjects rated the pain as intolerable. The area under the curve VAS-time was computed. For those subjects who felt intolerable pain before 10 min, the time when the cuff was deflated was recorded and VAS 10 was extrapolated until 10 min. Additionally, the maximal VAS during inflation was recorded.

healthy male volunteers [3] = experiment: Cutaneous single electrical stimulation pain threshold; assay type: in vivo, human; conditions: mean (SD)
Procedure: (§1) Electrical stimulation was performed through electrodes placed distal to the lateral malleolus. A 25 ms, train-of-five, 1 ms, square-wave impulse (perceived as one stimulus), was delivered by a computer-controlled constant current stimulator (Digitimer DS7A, Neurospec, Letchworth Garden City, UK). The current intensity was increased from 1 mA in steps of 0.5 mA until a pain sensation was evoked.
(§2) Three assessments were made and the mean of these 3 measurements was used for the data analysis.

healthy male volunteers [4] = experiment: Cutaneous repeated (5 stimuli) electrical stimulation, temporal summation threshold; assay type: in vivo, human; conditions: mean (SD)
From the text: The stimulus burst used for single stimulus was repeated 5 times at 2 Hz, at constant intensity. The current intensity of the 5 stimuli was increased from 1 mA in steps of 0.5 mA until the subjects felt pain during the last 2–3 of the 5 stimuli (indicating temporal summation).
as §2

healthy male volunteers [5] = experiment: Conditioned pain modulation (cold pressor test and pressure algometry); assay type: in vivo, human; conditions: difference in pressure pain detection threshold after vs before cold pressor test, mean (SD)
From the text: This method explores the endogenous modulation of nociceptive input. Under normal conditions, pain after application of a “test” nociceptive stimulus is attenuated by the application of an additional conditioning noxious stimulus to a remote body region, reflecting diffuse endogenous inhibition, [20]. In the present study, pressure pain detection threshold and cold pressure test (see below) were used as test and conditioning stimuli, respectively. An increase in pressure pain detection threshold immediately after cold pressure test was an indication of CPM.
The subjects placed their hand into a container filled with ice water. In order to maximize heterotopic stimulation, the hand contralateral to the side of pressure stimulation was used. The water was regularly mixed to maintain the temperature near to 0°C. The temperature of the water near the hand was monitored by a thermometer with a digital display (±0.1°C). The subjects were asked to keep the hand in the water until they felt an intolerable sensation of pain and were forced to remove the hand from the container, with a maximum time of 2 min.
Pressure pain detection threshold was measured again at the same time as the subject was withdrawing the hand from the water (one single measurement). CPM was measured as the difference in pressure pain detection threshold between measurements after and before the cold pressure test.

healthy male volunteers [6] = experiment: Pressure pain detection and tolerance thresholds (pressure algometer, 2nd toe); assay type: in vivo, human; conditions: mean (SD)
Procedure: Pain detection and tolerance thresholds were measured with an electronic pressure algometer (Somedic, Hörby, Sweden) applied at the center of the pulp of the 2nd toe. […] The pressure was increased from 0 at a rate of 30 kPa/s to a maximum pressure of 1200 kPa. Pain detection threshold was defined as the point at which the pressure sensation turned to pain. Pain tolerance threshold was defined as the point at which the subject felt the pain as intolerable. If the threshold was not reached at 1200 kPa, this value was considered as threshold. Three assessments were made and the mean of these 3 measurements were used for the data analysis.

healthy male volunteers [7] = experiment: Intramuscular single electrical stimulation pain threshold (tibialis anterior); assay type: in vivo, human; conditions: mean (SD)
Procedure: as §1
(§3) A needle was placed in the tibialis anterior muscle, 14 cm distal from the caudal end of the patella and 20 mm in depth. The same single and repeated stimulation patterns and the same procedure described for cutaneous stimulation were used.

healthy male volunteers [8] = experiment: Cutaneous repeated (20 stimuli) electrical stimulation, VAS; assay type: in vivo, human; design: AUC of VAS during 20 cutaneous electrical stimuli: unit not given beside the values; conditions: mean (SD); for Maximal VAS during 20 cutaneous electrical stimuli: VAS 0-10
Procedure: (§4) The stimulus burst used for single stimulus was repeated for a train of 20 pulses at 2 Hz, at an intensity corresponding to the temporal summation threshold. During this 10 s stimulation, pain intensity was continuously rated by the subject with an electronic VAS, and the area under the curve (AUC) was computed. Additionally, the maximal VAS during stimulation was recorded.

[9] = Pharmacokinetics of clobazam in plasma (LC-MS/MS); assay type: in vivo; conditions: human, po, 20 mg, clobazam 20 mg oral, mean (SD)
healthy male volunteers [10] = experiment: Intramuscular repeated (20 stimuli) electrical stimulation, VAS; assay type: in vivo, human; design: AUC of VAS during 20 intramuscular electrical stimuli: unit not given beside the values; conditions: mean (SD); for Maximal VAS during 20 intramuscular electrical stimuli: VAS 0-10
Procedure: as §4, §3

[11] = trial protocol, cited from earlier work
[12] = baseline before medication, per drug session
[13] = single oral dose (clobazam 20 mg, clonazepam 1 mg, tolterodine 1 mg), 120 min after medication
[14] = single oral dose (clobazam 20 mg, clonazepam 1 mg, tolterodine 1 mg), after flumazenil 0.2 mg iv
[15] = single oral dose (clobazam 20 mg, clonazepam 1 mg, tolterodine 1 mg), 30 min after medication
[16] = single oral dose (clobazam 20 mg, clonazepam 1 mg, tolterodine 1 mg), 60 min after medication
[17] = single oral dose (clobazam 20 mg, clonazepam 1 mg, tolterodine 1 mg), 90 min after medication
[18] = subgroup (n = 8) with peak plasma level below 180 minutes and at least 200 µg/ml

For `CN1C(=O)CC(=O)N(c2ccccc2)c2cc(Cl)ccc21` [Clobazam], the “DSST score compared with tolterodine at 120 min” value (healthy male volunteers [1]; main analysis, pairwise comparison within the time-points) was “not”, the DSST-score (healthy male volunteers [1]; 120 min after drug administration) was 74.9 (14.7) and the DSST-score (healthy male volunteers [1]; after flumazenil 0.2 mg iv) was 81.1 (12.1). For the same molecule, the “AUC of VAS during cuff algometry” value (healthy male volunteers [2]; [12]) was 3446 (539), the “Cuff algometry, overview of peak value or subgroup analysis” value (healthy male volunteers [2]; overview table, compared to tolterodine) was “Time factor significant, favouring clobazam and clonazepam compared to tolterodine” and the “AUC of VAS during cuff algometry” value (healthy male volunteers [2]; [13]) was 3001 (831). The “AUC of VAS during cuff algometry” value (healthy male volunteers [2]; [14]) was 2932 (566), the “Pain threshold after single cutaneous electrical stimulation” value (healthy male volunteers [3]; [12]) was 10.0 (2.9) mA and the “Pain threshold after single cutaneous electrical stimulation” value (healthy male volunteers [3]; [15]) was 10.3 (3.6) mA. The “Pain threshold after single cutaneous electrical stimulation” value (healthy male volunteers [3]; [16]) was 10.2 (3.8) mA, the “Pain threshold after single cutaneous electrical stimulation” value (healthy male volunteers [3]; [17]) was 11.2 (3.3) mA and the “Pain threshold after single cutaneous electrical stimulation” value (healthy male volunteers [3]; [13]) was 12.2 (3.9) mA. The “Pain threshold after single cutaneous electrical stimulation” value (healthy male volunteers [3]; [14]) was 12.0 (4.3) mA, the “Pain threshold after 5 cutaneous electrical stimuli” value (healthy male volunteers [4]; [12]) was 8.3 (3.0) mA and the “Pain threshold after 5 cutaneous electrical stimuli” value (healthy male volunteers [4]; [15]) was 8.7 (3.4) mA. For the same molecule, the “Pain threshold after 5 cutaneous electrical stimuli” value (healthy male volunteers [4]; [16]) was 8.7 (3.4) mA, the “Pain threshold after 5 cutaneous electrical stimuli” value (healthy male volunteers [4]; [17]) was 9.3 (2.9) mA and the “Pain threshold after 5 cutaneous electrical stimuli” value (healthy male volunteers [4]; [13]) was 9.9 (3.3) mA. For the same molecule, the “Pain threshold after 5 cutaneous electrical stimuli” value (healthy male volunteers [4]; [14]) was 9.7 (3.3) mA, the Conditioned pain modulation (healthy male volunteers [5]; [12]) was 71 (98) kPa and the Conditioned pain modulation (healthy male volunteers [5]; [13]) was 99 (99) kPa. The Conditioned pain modulation (healthy male volunteers [5]; [14]) was 58 (67) kPa, the “Pressure pain detection threshold” value (healthy male volunteers [6]; [12]) was 432 (123) kPa and the “Pressure pain detection threshold” value (healthy male volunteers [6]; [13]) was 379 (130) kPa. For the same molecule, the “Pressure pain detection threshold” value (healthy male volunteers [6]; [14]) was 393 (118) kPa, the “Pain threshold after single intramuscular electrical stimulation” value (healthy male volunteers [7]; [12]) was 1.7 (1.2) mA and the “Pain threshold after single intramuscular electrical stimulation” value (healthy male volunteers [7]; [13]) was 3.1 (4.6) mA. For the same molecule, the “Pain threshold after single intramuscular electrical stimulation” value (healthy male volunteers [7]; [14]) was 2.5 (2.1) mA, the “Maximal VAS during 20 cutaneous electrical stimuli” value (healthy male volunteers [8]; [12]) was 4.7 (1.8) and the “Maximal VAS during 20 cutaneous electrical stimuli” value (healthy male volunteers [8]; [15]) was 4.9 (2.2). For the same molecule, the “Maximal VAS during 20 cutaneous electrical stimuli” value (healthy male volunteers [8]; [16]) was 4.7 (1.9), the “Maximal VAS during 20 cutaneous electrical stimuli” value (healthy male volunteers [8]; [17]) was 4.3 (2.0) and the “Maximal VAS during 20 cutaneous electrical stimuli” value (healthy male volunteers [8]; [13]) was 4.2 (1.8). For the same molecule, the “Maximal VAS during 20 cutaneous electrical stimuli” value (healthy male volunteers [8]; [14]) was 4.5 (1.7), the “AUC of VAS during 20 cutaneous electrical stimuli” value (healthy male volunteers [8]; [12]) was 332 (142) and the “AUC of VAS during 20 cutaneous electrical stimuli” value (healthy male volunteers [8]; [15]) was 338 (152). The “AUC of VAS during 20 cutaneous electrical stimuli” value (healthy male volunteers [8]; [16]) was 341 (167), the “AUC of VAS during 20 cutaneous electrical stimuli” value (healthy male volunteers [8]; [17]) was 328 (169) and the “AUC of VAS during 20 cutaneous electrical stimuli” value (healthy male volunteers [8]; [13]) was 314 (146). The “AUC of VAS during 20 cutaneous electrical stimuli” value (healthy male volunteers [8]; [14]) was 339 (150), the AUC ([9]; all volunteers (n = 16)) was 5460 ng·h/mL and the Cmax ([9]; all volunteers (n = 16)) was 370 ng/mL. It also gave a Tmax ([9]; all volunteers (n = 16)) of 2.28 h, a half-life ([9]; all volunteers (n = 16)) of 19 h and an AUC [9, 18] of 6160 ng·h/mL. The Cmax [9, 18] was 470 ng/mL, the Tmax [9, 18] was 1.64 h and the half-life [9, 18] was 17.5 h. For the same molecule, the “Maximal VAS during 20 intramuscular electrical stimuli” value (healthy male volunteers [10]; [12]) was 4.2 (1.5), the “Maximal VAS during 20 intramuscular electrical stimuli” value (healthy male volunteers [10]; [13]) was 4.5 (2.5) and the “Maximal VAS during 20 intramuscular electrical stimuli” value (healthy male volunteers [10]; [14]) was 4.0 (1.9). For the same molecule, the “AUC of VAS during 20 intramuscular electrical stimuli” value (healthy male volunteers [10]; [12]) was 284 (149), the “AUC of VAS during 20 intramuscular electrical stimuli” value (healthy male volunteers [10]; [13]) was 309 (188) and the “AUC of VAS during 20 intramuscular electrical stimuli” value (healthy male volunteers [10]; [14]) was 292 (169). The “Time to maximum plasma concentration” value ([11]; after 10 mg in healthy volunteers) was 1.3 ± 0.2 h, the “Time to maximum plasma concentration” value ([11]; after 20 mg in healthy volunteers) was 1.6 h and the “Time to maximum plasma concentration” value ([11]; general statement) was “about 2 h”. For the same molecule, the Bioavailability ([11]; drug background) was 90% and the “Half life (t1/2)” value ([11]; drug background) was “circa 20 h”.
